One assay concerns the target T1, F103A hP2X7 (Homo sapiens, UniProt Q99572, F103A).
T1 sequence (Q99572 1-595 F103A): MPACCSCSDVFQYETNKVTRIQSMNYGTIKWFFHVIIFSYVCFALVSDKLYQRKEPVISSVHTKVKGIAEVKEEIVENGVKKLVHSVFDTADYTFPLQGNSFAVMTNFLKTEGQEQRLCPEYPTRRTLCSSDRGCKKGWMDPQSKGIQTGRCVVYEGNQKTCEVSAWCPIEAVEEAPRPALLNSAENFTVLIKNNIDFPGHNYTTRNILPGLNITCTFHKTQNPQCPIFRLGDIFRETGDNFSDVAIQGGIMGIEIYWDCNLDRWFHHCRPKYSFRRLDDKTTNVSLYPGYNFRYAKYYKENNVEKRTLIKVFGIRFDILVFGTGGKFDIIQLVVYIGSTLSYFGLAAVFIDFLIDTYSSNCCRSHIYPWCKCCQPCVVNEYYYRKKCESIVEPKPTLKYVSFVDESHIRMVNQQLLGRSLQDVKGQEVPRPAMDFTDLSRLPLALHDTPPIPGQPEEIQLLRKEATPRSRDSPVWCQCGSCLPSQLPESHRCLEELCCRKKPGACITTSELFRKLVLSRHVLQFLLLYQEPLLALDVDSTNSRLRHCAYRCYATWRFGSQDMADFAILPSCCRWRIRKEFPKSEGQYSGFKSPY
The experiment in a line: fura-2 intracellular calcium assay on HEK-293 stable cell line expressing NAM-site mutant F103A hP2X7. It counts as cell-based. Conditions: for pIC50: mean in brackets, read-out: mean IC50. How it is done: (§1) Transfection was performed using lipofectamine 2000 (Fisher Scientific), and cells were subjected to Geneticin (800 μg/mL) selection for 2–3 weeks. This was followed by single cell cloning by limiting dilution in 96-well plates. Individual clones were selected for further study based on ATP-induced TO-PRO-3 uptake on a BD Cytoflex flow cytometer. Cell lines were maintained in DMEM:F12 media supplemented with 10% fetal bovine serum (PanBiotech), penicillin and streptomycin (Fisher Scientific) and kept in a humidified incubator with 5% CO2. Stable P2X7-expressing cells were kept under Geneticin selection at a concentration of 400 μg/mL. Passaging was performed twice weekly using 0.25% Trypsin-EDTA (Fisher Scientific).
(§2) P2X7 responses were measured by monitoring intracellular calcium responses using fura-2AM loaded cells. Cells were plated at 2–2.5 × 10^4 cells/well the day before experiments in 96-well plates (NUNC) coated with 50 μg/mL poly-D-lysine (Merck Millipore). A loading buffer containing 2 μM fura-2AM (HelloBio) and 250 μM sulfinpyrazone (Merck Millipore) in a low divalent buffer (145 mM NaCl, 5 mM KCl, 0.2 mM CaCl2, 10 mM HEPES, 13 mM glucose, pH 7.3) was added to cells for 45 min at 37 °C. After loading, the buffer was removed and replaced with calcium-containing extracellular solution (145 mM NaCl, 5 mM KCl, 2 mM CaCl2, 10 mM HEPES, 13 mM glucose, pH 7.3). Responses were measured using a Flexstation 3 plate reader (Molecular Devices) with dual excitation wavelengths of 340 and 380 nm and single emission wavelength of 510 nm. The sample interval was 3.5 s, and each well was recorded for 180 s. Fura-2 ratios were calculated in Softmax Pro v5.4; zero baseline was applied, and responses were measured as normalized area under the curve (AUC). Dose inhibition curves were plotted using GraphPad Prism v6 nonlinear regression (three parameter fit) and log IC50 values reported.
A general note: Calcium flux is commonly read through the fluorescence of an indicator in the cells.

For another assay, the target named is T2, M105A hP2X7 (Homo sapiens, UniProt Q99572, M105A).
T2 sequence (Q99572 1-595 M105A): T1 sequence (Q99572 1-595 F103A) with A103F, M105A
The experiment in a line: fura-2 intracellular calcium assay on HEK-293 stable cell line expressing NAM-site mutant M105A hP2X7. It counts as cell-based. To be noted: for pIC50: mean in brackets, read-out: mean IC50. How it is done: as §1, §2

Experimental findings from PMC12426935, “On-Cell Saturation Transfer Difference NMR Spectroscopy on Ion Channels: Characterizing Negative Allosteric Modulator Binding Interactions of P2X7” (Journal of the American Chemical Society, 2025) are described below.

Molecules are shown by their SMILES. Positions count from the first letter of the chain named. pIC50: −log10 of the molar value. Where two headings read alike, the source gives them in different places.

The term IC50 denotes the concentration that gives 50% inhibition. Usually pIC50 stands for the IC50 on a negative log10 scale, so that one unit is a factor of ten. In the case of `O=C(NCC1(N2CCN(c3ccccc3)CC2)CCOCC1)c1cccnc1Sc1ccccc1` [JNJ-47965567], the 50% inhibitory concentration (IC50) at F103A hP2X7 (F103A hP2X7, agonist ATP, log IC50 ± standard error, n = 3, read-out: Log IC50 (converted)) was 155 nM; on M105A hP2X7 (M105A hP2X7, agonist ATP, log IC50 ± standard error, n = 3, read-out: Log IC50 (converted)), 45.6 nM. In addition, the negative-log IC50 (pIC50) on F103A hP2X7 (F103A hP2X7, agonist ATP, n = 3) was 6.79; on F103A hP2X7 (F103A hP2X7, agonist BzATP, n = 3) it was 7.23; on M105A hP2X7 (M105A hP2X7, agonist ATP, n = 3), 7.35; at M105A hP2X7 (M105A hP2X7, agonist BzATP, n = 3) it was 7.54. Besides, the “loss in potency (increase in IC50) at F103A relative to WT hP2X7” value at F103A hP2X7 (F103A hP2X7 vs hP2X7) is 10 fold. For the same compound, the “increase in IC50 at M105A-hP2X7 relative to hP2X7” value on M105A hP2X7 (M105A hP2X7 vs hP2X7) was “less than 5 fold”.
